Test results from patent US6602220B1, “Miniature air-controlled drug selector and delivery device portable by small animals” (The Research Foundation of State University of New York, priority 2000, dated 2003).

How the values were obtained:
neocortical neuron = assay: Single-cell recording with microdialysis drug delivery via minivalve, neocortex of freely moving rat; type: in vivo
Experimental: The experiment was performed on a freely moving rat which carried the minivalve 100 of the present invention on its head as illustrated in FIG. 1.

[1] = tested on: single neuron, in the hippocampus; assay: Single-cell recording/microdialysis study with minivalve, hippocampus of freely moving rat; type: in vivo
Description: Referring now to FIGS. 6a-6c, there is illustrated graphical data from a single-cell recording/microdialysis study performed with the minivalve 100 of the present invention. The recordings were made from the same single neuron, in the hippocampus of the freely moving rat 102 having the minivalve 100 mounted on its head, as illustrated in FIG. 1.

| SMILES | effect on firing of a neocortical neuron, first drug perfusion (neocortical neuron; 500 μM NMDA via microdialysis probe, freely moving rat) | time to effect after the minivalve switch (neocortical neuron; 500 μM NMDA, first perfusion, switch from position 1 to position 2) | effect on firing of a neocortical neuron, second delivery (neocortical neuron; second NMDA delivery after wash-out) | effect of third exposure (neocortical neuron; third NMDA exposure three hours later) | effect on firing of hippocampal neuron, subsequent application ([1]; NMDA application through the probe after the second ethanol delivery) | effect on cell firing in the neocortex (neocortical neuron; ethanol delivered via microdialysis for two minutes, freely moving rat) | time to effect after the minivalve was switched (neocortical neuron; ethanol, neocortex) | effect on firing of hippocampal neuron, first perfusion ([1]; first ethanol perfusion into hippocampus recording site) | time to effect after minivalve activation ([1]; first ethanol perfusion, hippocampus) | effect on firing of hippocampal neuron, second delivery ([1]; second ethanol delivery, same neuron) |
| --- | --- | --- | --- | --- | --- | --- | --- | --- | --- | --- |
| CN[C@H](CC(=O)O)C(=O)O [NMDA] | brief firing rate increase at point D, followed by a silent period | ≤ 1 min | ineffective | clear excitatory effects associated with an EEG seizure | initial firing rate increase, followed by electrical silence |  |  |  |  |  |
| CCO [ethanol] |  |  |  |  |  | instant cell firing suppressant effect | within one minute | suppressed the firing of the recorded neuron | as quickly as two minutes | ineffective |
